Measurements as given in PubChem BioAssay (NCI).
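Growth conditions: 96-well plates. Treatment: test compound, 48 hours, 5 concentrations. Analysis: linear interpolation between bracketing concentrations; unreached endpoints set to highest concentration. Here, GI50 denotes the concentration required for 50% inhibition of growth. TGI: concentration producing complete growth inhibition.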

Experiments:
Assay in all cases: NCI-60 cell line screen, 48 h
786-0 renal = test system: 786-0 renal
A498 renal = test system: A498 renal
A549 NSCLC = test system: A549 NSCLC
ACHN renal = test system: ACHN renal
BT-549 breast = test system: BT-549 breast
CAKI-1 renal = test system: CAKI-1 renal
CCRF-CEM leukemia = test system: CCRF-CEM leukemia
COLO 205 colon = test system: COLO 205 colon
DU-145 prostate = test system: DU-145 prostate
EKVX NSCLC = test system: EKVX NSCLC
HCC-2998 colon = test system: HCC-2998 colon
HCT-116 colon = test system: HCT-116 colon
HCT-15 colon = test system: HCT-15 colon
HL-60(TB) leukemia = test system: HL-60(TB) leukemia
HOP-62 NSCLC = test system: HOP-62 NSCLC
HOP-92 NSCLC = test system: HOP-92 NSCLC
HS 578T breast = test system: HS 578T breast
HT29 colon = test system: HT29 colon
IGROV1 ovarian = test system: IGROV1 ovarian
K-562 leukemia = test system: K-562 leukemia
KM12 colon = test system: KM12 colon
LOX IMVI melanoma = test system: LOX IMVI melanoma
M14 melanoma = test system: M14 melanoma
MALME-3M melanoma = test system: MALME-3M melanoma
MCF7 breast = test system: MCF7 breast
MDA-MB-231 breast = test system: MDA-MB-231 breast
MDA-MB-435 = test system: MDA-MB-435
MOLT-4 leukemia = test system: MOLT-4 leukemia
NCI-H226 lung = test system: NCI-H226 lung
NCI-H23 lung = test system: NCI-H23 lung
NCI-H460 lung = test system: NCI-H460 lung
NCI-H522 lung = test system: NCI-H522 lung
NCI/ADR-RES ovarian = test system: NCI/ADR-RES ovarian
OVCAR-3 ovarian = test system: OVCAR-3 ovarian
OVCAR-4 ovarian = test system: OVCAR-4 ovarian
OVCAR-5 ovarian = test system: OVCAR-5 ovarian
OVCAR-8 ovarian = test system: OVCAR-8 ovarian
PC-3 prostate = test system: PC-3 prostate
RPMI-8226 leukemia = test system: RPMI-8226 leukemia
RXF 393 renal = test system: RXF 393 renal
SF-268 CNS = test system: SF-268 CNS
SF-295 CNS = test system: SF-295 CNS
SF-539 CNS = test system: SF-539 CNS
SK-MEL-28 melanoma = test system: SK-MEL-28 melanoma
SK-MEL-5 melanoma = test system: SK-MEL-5 melanoma
SK-OV-3 ovarian = test system: SK-OV-3 ovarian
SN12C renal = test system: SN12C renal
SNB-19 CNS = test system: SNB-19 CNS
SNB-75 CNS = test system: SNB-75 CNS
SW-620 colon = test system: SW-620 colon
T-47D breast = test system: T-47D breast
TK-10 renal = test system: TK-10 renal
U251 CNS = test system: U251 CNS
UACC-257 melanoma = test system: UACC-257 melanoma
UACC-62 melanoma = test system: UACC-62 melanoma
UO-31 renal = test system: UO-31 renal

In the case of `C[As](C)Sc1ccnc(S[As](C)C)n1`, the GI50 (786-0 renal) is reported as 5.36 µM, the TGI (786-0 renal) is reported as > 40.5 µM and the GI50 (A498 renal) is reported as 26 µM. For the same molecule, the TGI (A498 renal) was > 100 µM, the GI50 (A549 NSCLC) was 8.51 µM and the TGI (A549 NSCLC) was > 41.7 µM. The GI50 (ACHN renal) was 1.85 µM, the TGI (ACHN renal) was 15.1 µM and the GI50 (BT-549 breast) was 3.78 µM. For the same molecule, the TGI (BT-549 breast) was 18.2 µM, the GI50 (CAKI-1 renal) was 4.35 µM and the TGI (CAKI-1 renal) was 22.9 µM. For the same molecule, the GI50 (CCRF-CEM leukemia) was 1.34 µM, the GI50 (COLO 205 colon) was 1.53 µM and the TGI (COLO 205 colon) was > 39.3 µM. For the same molecule, the GI50 (DU-145 prostate) was 5.98 µM, the TGI (DU-145 prostate) was > 39.7 µM and the GI50 (EKVX NSCLC) was 11.2 µM. It also gave a TGI (EKVX NSCLC) of 35.8 µM, a GI50 (HCC-2998 colon) of 3.02 µM and a TGI (HCC-2998 colon) of 10.5 µM. The GI50 (HCT-116 colon) was 2.13 µM, the TGI (HCT-116 colon) was > 34.8 µM and the GI50 (HCT-15 colon) was 0.928 µM. The TGI (HCT-15 colon) was 14.7 µM, the GI50 (HL-60(TB) leukemia) was 1.13 µM and the GI50 (HOP-62 NSCLC) was 19 µM. For the same molecule, the TGI (HOP-62 NSCLC) was > 46.3 µM, the GI50 (HOP-92 NSCLC) was 0.774 µM and the TGI (HOP-92 NSCLC) was 5 µM. It also gave a GI50 (HS 578T breast) of 1.99 µM, a TGI (HS 578T breast) of 17.7 µM and a GI50 (HT29 colon) of 3.98 µM. The TGI (HT29 colon) was > 39.3 µM, the GI50 (IGROV1 ovarian) was 4.73 µM and the TGI (IGROV1 ovarian) was > 40.8 µM. For the same molecule, the GI50 (K-562 leukemia) was 1.06 µM, the GI50 (KM12 colon) was 9.52 µM and the TGI (KM12 colon) was > 51.9 µM. The GI50 (LOX IMVI melanoma) was 2.76 µM, the TGI (LOX IMVI melanoma) was 96.2 µM and the GI50 (M14 melanoma) was 3.94 µM. The TGI (M14 melanoma) was > 44.9 µM, the GI50 (MALME-3M melanoma) was 1.66 µM and the TGI (MALME-3M melanoma) was 11.3 µM. The GI50 (MCF7 breast) was 3.23 µM, the TGI (MCF7 breast) was > 35.1 µM and the GI50 (MDA-MB-231 breast) was 2.62 µM. The TGI (MDA-MB-231 breast) was 15.8 µM, the GI50 (MDA-MB-435) was 1.8 µM and the TGI (MDA-MB-435) was > 27.9 µM. The GI50 (MOLT-4 leukemia) was 1.43 µM, the GI50 (NCI-H226 lung) was 31.2 µM and the TGI (NCI-H226 lung) was > 100 µM. The GI50 (NCI-H23 lung) was 6.79 µM, the TGI (NCI-H23 lung) was > 32 µM and the GI50 (NCI-H460 lung) was 19.1 µM. The TGI (NCI-H460 lung) was > 58.6 µM, the GI50 (NCI-H522 lung) was 0.918 µM and the TGI (NCI-H522 lung) was 27.8 µM. The GI50 (NCI/ADR-RES ovarian) was 7.72 µM, the TGI (NCI/ADR-RES ovarian) was > 25.9 µM and the GI50 (OVCAR-3 ovarian) was 3.91 µM. It also gave a TGI (OVCAR-3 ovarian) of 22 µM, a GI50 (OVCAR-4 ovarian) of 3.44 µM and a TGI (OVCAR-4 ovarian) of 36.3 µM. The GI50 (OVCAR-5 ovarian) was 19.6 µM, the TGI (OVCAR-5 ovarian) was > 48.4 µM and the GI50 (OVCAR-8 ovarian) was 5.51 µM. For the same molecule, the TGI (OVCAR-8 ovarian) was > 40.1 µM, the GI50 (PC-3 prostate) was 3.14 µM and the TGI (PC-3 prostate) was 30.8 µM. It also gave a GI50 (RPMI-8226 leukemia) of 1.12 µM, a TGI (RPMI-8226 leukemia) of 4.61 µM and a GI50 (RXF 393 renal) of 3.2 µM. The TGI (RXF 393 renal) was 20.1 µM, the GI50 (SF-268 CNS) was 7.44 µM and the TGI (SF-268 CNS) was > 39.7 µM. For the same molecule, the GI50 (SF-295 CNS) was 27.2 µM, the TGI (SF-295 CNS) was > 59.2 µM and the GI50 (SF-539 CNS) was 2.77 µM. For the same molecule, the TGI (SF-539 CNS) was > 34.8 µM, the GI50 (SK-MEL-28 melanoma) was 2.67 µM and the TGI (SK-MEL-28 melanoma) was 19.7 µM. The GI50 (SK-MEL-5 melanoma) was 2.3 µM, the TGI (SK-MEL-5 melanoma) was 10.7 µM and the GI50 (SK-OV-3 ovarian) was 12.4 µM. The TGI (SK-OV-3 ovarian) was > 100 µM, the GI50 (SN12C renal) was 3.41 µM and the TGI (SN12C renal) was 15.8 µM. The GI50 (SNB-19 CNS) was 14.7 µM, the TGI (SNB-19 CNS) was > 56.2 µM and the GI50 (SNB-75 CNS) was 12.7 µM. For the same molecule, the TGI (SNB-75 CNS) was > 100 µM, the GI50 (SW-620 colon) was 1.4 µM and the TGI (SW-620 colon) was 19.5 µM. For the same molecule, the GI50 (T-47D breast) was 22.9 µM, the TGI (T-47D breast) was > 100 µM and the GI50 (TK-10 renal) was 2.64 µM. The TGI (TK-10 renal) was 14.3 µM, the GI50 (U251 CNS) was 7.03 µM and the TGI (U251 CNS) was > 100 µM. The GI50 (UACC-257 melanoma) was 5 µM, the TGI (UACC-257 melanoma) was 27.1 µM and the GI50 (UACC-62 melanoma) was 2.38 µM. For the same molecule, the TGI (UACC-62 melanoma) was 15.6 µM, the GI50 (UO-31 renal) was 3.73 µM and the TGI (UO-31 renal) was 26.9 µM.
